Tests used:
[1] = target: T1, progesterone receptor (Oryctolagus cuniculus, UniProt P06186); test: Receptor binding affinity, progesterone receptor (competitive binding, uterus cytosol); conditions: Progesterone = 100%; uterus cytosol of estradiol-primed rabbit; tracer 3H-ORG 2058
T1 construct: receptors in the cytosol of animal target organs; from tissue; host or cells: uterus cytosol of the estradiol-primed rabbit
T1 sequence (P06186 1-930): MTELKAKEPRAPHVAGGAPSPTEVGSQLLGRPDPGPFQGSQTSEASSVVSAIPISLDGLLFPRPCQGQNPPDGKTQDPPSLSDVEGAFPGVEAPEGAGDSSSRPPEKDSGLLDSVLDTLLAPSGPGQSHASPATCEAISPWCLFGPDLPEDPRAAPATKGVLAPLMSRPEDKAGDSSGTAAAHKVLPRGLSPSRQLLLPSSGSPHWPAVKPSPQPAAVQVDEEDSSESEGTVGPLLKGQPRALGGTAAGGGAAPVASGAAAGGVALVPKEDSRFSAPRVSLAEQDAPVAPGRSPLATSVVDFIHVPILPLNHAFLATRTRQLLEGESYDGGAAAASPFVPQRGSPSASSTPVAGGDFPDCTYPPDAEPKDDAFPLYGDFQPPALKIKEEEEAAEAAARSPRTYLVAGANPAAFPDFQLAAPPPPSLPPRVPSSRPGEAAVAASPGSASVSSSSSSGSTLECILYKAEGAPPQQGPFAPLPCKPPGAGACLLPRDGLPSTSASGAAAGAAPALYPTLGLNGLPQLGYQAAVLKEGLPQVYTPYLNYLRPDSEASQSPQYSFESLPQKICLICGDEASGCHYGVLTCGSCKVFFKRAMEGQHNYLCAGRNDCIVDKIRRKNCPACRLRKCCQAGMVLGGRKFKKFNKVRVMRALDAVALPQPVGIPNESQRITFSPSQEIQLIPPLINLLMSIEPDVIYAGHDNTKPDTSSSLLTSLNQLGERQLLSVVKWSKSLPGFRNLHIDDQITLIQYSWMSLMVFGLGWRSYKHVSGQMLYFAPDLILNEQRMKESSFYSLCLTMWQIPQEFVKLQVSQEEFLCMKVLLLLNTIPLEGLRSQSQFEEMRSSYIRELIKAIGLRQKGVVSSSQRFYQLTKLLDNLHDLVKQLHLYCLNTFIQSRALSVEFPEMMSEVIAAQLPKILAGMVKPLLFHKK
Method: (§1) Measurement of the receptor binding affinity
(§2) The receptor binding affinity was determined by competitive binding of a specifically binding ^3H-labeled hormone (tracer) and the compound to be tested to receptors in the cytosol of animal target organs. Receptor saturation and reaction equilibrium were aimed at here. The following incubation conditions were chosen:
Progesterone receptor Uterus cytosol of the estradiol-primed rabbit, stored at −30° C.
Buffer for homogenization and incubation: TED buffer 20 mM tris/HCl, pH [sic]=7.4; 1 mM ethylenediamine tetracetate, 2 mM dithiothreitol) containing 250 mM sucrose.
Reference substance: progesterone.
(§3) After an incubation of receptor fraction, tracer and competitor for 18 h at 0-4° C., the bound and free steroid were separated by mixing in active carbon/dextran (1%/0.1%), centrifuging off and measuring the receptor-bound ^3H activity in the supernatant.

[2] = target: T2, glucocorticoid receptor (Rattus norvegicus, UniProt P06536); test: Receptor binding affinity, glucocorticoid receptor (competitive binding, thymus cytosol); conditions: Dexamethasone = 100%; thymus cytosol of adrenalectomized rat; tracer 3H-dexamethasone
T2 construct: receptors in the cytosol of animal target organs; from tissue; host or cells: thymus cytosol of the adrenalectomized rat
T2 sequence (P06536 1-795): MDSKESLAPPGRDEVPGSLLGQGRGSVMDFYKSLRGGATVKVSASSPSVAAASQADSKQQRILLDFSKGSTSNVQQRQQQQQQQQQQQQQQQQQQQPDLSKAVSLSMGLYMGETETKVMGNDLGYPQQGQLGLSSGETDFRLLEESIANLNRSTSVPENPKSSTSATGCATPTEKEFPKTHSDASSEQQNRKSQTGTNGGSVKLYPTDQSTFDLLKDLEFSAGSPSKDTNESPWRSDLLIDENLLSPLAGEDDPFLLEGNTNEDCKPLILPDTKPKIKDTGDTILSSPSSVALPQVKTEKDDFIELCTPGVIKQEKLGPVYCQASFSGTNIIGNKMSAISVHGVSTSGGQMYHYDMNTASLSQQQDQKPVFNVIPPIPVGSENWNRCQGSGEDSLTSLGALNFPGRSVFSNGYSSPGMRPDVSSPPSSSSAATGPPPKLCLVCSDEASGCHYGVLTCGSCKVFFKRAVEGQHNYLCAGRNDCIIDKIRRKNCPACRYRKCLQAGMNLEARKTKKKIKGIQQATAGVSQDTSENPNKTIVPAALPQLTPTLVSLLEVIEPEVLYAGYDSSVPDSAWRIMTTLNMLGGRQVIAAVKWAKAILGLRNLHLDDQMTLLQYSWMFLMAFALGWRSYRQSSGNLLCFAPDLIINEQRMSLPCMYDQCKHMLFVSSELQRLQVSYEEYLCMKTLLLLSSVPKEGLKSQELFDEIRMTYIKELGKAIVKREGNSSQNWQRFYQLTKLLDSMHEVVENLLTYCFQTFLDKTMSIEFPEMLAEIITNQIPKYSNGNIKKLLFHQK
Method: as §1, §2
Glucocorticoid receptor: Thymus cytosol of the adrenalectomized rat. Thymi stored at −30° C.
Tracer: ^3H-dexamethasone, 20 nM.
Reference substance: dexamethasone.
as §3

[3] = tested on: early pregnancy in the rat; test: Inhibition of early pregnancy in the rat (early abortive action); assay type: in vivo; conditions: s.c., day 5-7 of pregnancy
Method: Inhibition of early pregnancy in the rat Female rats weighing 180-200 g were mated in the proestrus stage. On detection of sperm in the vaginal region on the next day, this is set as day 1 (d=1) of the pregnancy. The rats are treated with test substance or vehicle using 0.2 ml of benzoyl benzoate/castor oil (1+4 v/v) subcutaneously from day 5 to day 7 (d5-d7); autopsy is carried oust painlessly on day d9. The uterus horns was [sic] dissected and examined for intact or damaged nidation sites.

[4] = tested on: pregnancy of guinea pigs; test: Inhibition of late pregnancy in pregnant guinea pigs (abortive action); assay type: in vivo; conditions: guinea pig; for Complete inhibition of pregnancy % / Complete inhibition of pregnancy N#/N (non-gravid/mated females): s.c., day 43-44 of pregnancy
Method: Inhibition of late pregnancy in pregnant guinea pigs
Pregnant guinea pigs are treated with test substances from day 43-44. Experimental animals were […] with the test substance in oily solution (0.2-2.0 ml of benzoyl benzoate/castor oil 1+4 v/v) 1× daily on day 43 and 44. Control animals were treated with vehicle. The pregnancy of the animals was monitored until day 50, in particular, the expulsion of fetuses and placentas was observed and recorded.

[5] = tested on: guinea pig in cycle; test: Antiluteolysis test/ovulation inhibition test in the guinea pig in cycle; assay type: in vivo; conditions: guinea pig
Method: Antiluteolysis test/ovulation inhibition test in the guinea pig in cycle: This test is based on the fact that progesterone at the end of the cycle stimulates uterine prostaglandin secretion. In the guinea pig, the inhibition of this function leads to a persistence of the corpora lutea (antiluteolysis). […] This test thus allows the therapy-relevant typing of progesterone antagonists as ? pure” or ? agonistic” substances. Guinea pigs are treated with the test substance on day 10 to day 17 of the cycle. The progesterone concentrations in the serum are determined on day 10 before substance treatment and on the following days until autopsy ([…]., Beier, […]., Crundel, M. et al. in Current Concepts in Fertility Regulation and Reproduction, (eds). Puri, C. P. and Van Look, P. F. H. (1994) 303-328).

SMILES | Relative molar binding affinity RBA (%) to the progesterone receptor [1] [%] | Relative molar binding affinity RBA (%) to the glucocorticoid receptor [2] [%] | Complete inhibition of pregnancy % ([3]; 1 mg/(animal × day)) [%] | Complete inhibition of pregnancy N#/N (non-gravid/mated females) ([3]; 1 mg/(animal × day)) | Complete inhibition of pregnancy % ([3]; 3 mg/(animal × day)) [%] | Complete inhibition of pregnancy N#/N (non-gravid/mated females) ([3]; 3 mg/(animal × day)) | other results
CCSC(=O)O/N=C/c1ccc([C@H]2C[C@@]3(C)[C@@H](CC[C@]3(COC)OC)[C@@H]3CCC4=CC(=O)CCC4=C32)cc1 [Example 3, 4-[17β-Methoxy-17α-(methoxymethyl)-3-oxoestra-4,9-dien-11β-yl]benzaldehyde 1-(E)-[O-(ethylthio)carbonyl]oxime] | 164 | 42 | 0 | 0/5 | 0 | 0/5 | Complete inhibition of pregnancy % ([3]; 10 mg/(animal × day)): 20%; Complete inhibition of pregnancy N#/N (non-gravid/mated females) ([3]; 10 mg/(animal × day)): 1/5; Complete inhibition of pregnancy % ([4]; 10 mg/animal/day): 0%; Complete inhibition of pregnancy N#/N (non-gravid/mated females) ([4]; 10 mg/animal/day): 0/7; Complete inhibition of pregnancy % ([4]; 30 mg/animal/day): 0%; Complete inhibition of pregnancy N#/N (non-gravid/mated females) ([4]; 30 mg/animal/day): 0/7; Complete inhibition of pregnancy % ([4]; 100 mg/animal/day): 0%; Complete inhibition of pregnancy N#/N (non-gravid/mated females) ([4]; 100 mg/animal/day): 0/7; Interference with the pregnancy of guinea pigs (in words) ([4]; very high doses): incapable even at very high doses of interfering with the pregnancy of guinea pigs
CCSC(=O)OC[C@]1(O)CC[C@H]2[C@@H]3CCC4=CC(=O)CCC4=C3[C@@H](c3ccc(/C=N/OC(=O)SCC)cc3)C[C@@]21C [Example 8, 4-{17β-Hydroxy-17α-[(ethylthiocarbonyloxy)methyl]3-oxoestra-4,9-dien-11β-yl]benzaldehyde 1-(E)-[O-(ethylthio)carbonyl]oxime] | 74 | 32 | – | – | – | – | –
COC[C@@]1(O)CC[C@H]2[C@@H]3CCC4=CC(=O)CCC4=C3[C@@H](c3ccc(/C=N/OC(=O)SC)cc3)C[C@@]21C [Example 2, 4-[17β-Hydroxy-17α-(methoxymethyl)-3-oxoestra-4,9-dien-11β-yl]benzaldehyde 1-(E)-[O-(methylthio)carbonyl]oxime] | 185 | 52 | – | – | 0 | 0/4 | –
CC(=O)[C@H]1CC[C@H]2[C@@H]3CCC4=CC(=O)CC[C@]4(C)[C@H]3CC[C@]12C [progesterone] | – | – | – | – | – | – | Prostaglandin / PGFM levels in the blood (in words) [5]: raised prostaglandin F metabolite levels
CCSC(=O)ON=Cc1ccc(C2CC3(C)C(CCC3(O)COC)C3CCC4=CC(=O)CCC4=C23)cc1 (stereo not drawn) [Example 4, 4-[17β-Hydroxy-17α-(methoxymethyl)-3-oxoestra-4,9-dien-11β-yl]benzaldehyde 1-(E)-[O-(ethylthio)carbonyl]oxime] | 44 | 53 | – | – | – | – | –
CCSC(=O)ON=Cc1ccc(C2CC3(C)C(CCC3(O)CCl)C3CCC4=CC(=O)CCC4=C23)cc1 (stereo not drawn) [Example 6, 4-[17β-Hydroxy-17α-(chloromethyl)-3-oxoestra-4,9-dien-11β-yl]benzaldehyde 1-(E)-[O-(ethylthio)carbonyl]oxime] | 64 | 22 | – | – | – | – | –
COC[C@]1(OC)CC[C@H]2[C@@H]3CCC4=CC(=O)CCC4=C3[C@@H](c3ccc(/C=N/O)cc3)C[C@@]21C [J 867, 11β-[4-(hydroximinomethyl)phenyl]-17β-methoxy-17α-methoxymethyl-estra-4,9-dien-3-one, reference compound] | 302 | 77 | 100 | 5/5 | 100 | 5/5 | Complete inhibition of pregnancy % ([3]; 0.3 mg/(animal × day)): 0%; Complete inhibition of pregnancy N#/N (non-gravid/mated females) ([3]; 0.3 mg/(animal × day)): 0/5
CCSC(=O)ON=Cc1ccc(C2CC3(C)C(CCC3(O)CN=[N+]=[N-])C3CCC4=CC(=O)CCC4=C23)cc1 (stereo not drawn) [Example 5, 4-[17β-Hydroxy-17α-(azidomethyl)-3-oxoestra-4,9-dien-11β-yl]benzaldehyde-1-(E)-[O-(ethylthio)carbonyl]oxime] | 77 | 20 | – | – | – | – | –
CCSC(=O)O/N=C/c1ccc([C@H]2C[C@@]3(C)[C@@H](CC[C@@]3(O)CC#N)[C@@H]3CCC4=CC(=O)CCC4=C32)cc1 [Example 7] | 42 | 2 | 0 | 0/5 | 0 | 0/5 | –
COCC1(OC)CCC2C3CCC4=CC(=O)CCC4=C3C(c3ccc(C=NOC(=O)SC)cc3)CC21C (stereo not drawn) [Example 1, 4-[17β-Methoxy-17α-(methoxymethyl)-3-oxoestra-4,9-dien-11β-yl]benzaldehyde 1-(E)-[O-(methylthio)carbonyl]oxime] | 159 | 49 | – | – | – | – | –
